In US10899988B1, “Octane hyperboosting in fuel blends” (National Technology & Engineering Solutions of Sandia, LLC, priority 2018, dated 2021):

Columns and labels:
[1] = Co-optima fuel property database, cited from earlier work; for Water Solubility: measured at 25° C.
[2] = ASTM D3703 test for hydroperoxides (peroxide number); assay type: physicochemical; details: silica column processed sample; testing range 0-50 mg/kg
Procedure: Potential polar contaminants, such as peroxides and hydrates, were removed from the neat prenol sample using a silica column following the protocol outlined by Mueller et al. (see, e.g., Mueller C J et al., “Diesel surrogate fuels for engine testing and chemical-kinetic modeling: compositions and properties,” Energy Fuels 2016; 30:1445-61). RON testing of this sample was conducted to confirm that these contaminants were not affecting the RON measurement. The sample containers were stored at 85% capacity and sealed with parafilm to limit peroxide formation after the silica column treatment; testing was performed within 10 days of the treatment. The peroxide number of the silica column treated sample (sample processed as described above) was tested by the ASTM […] method at SwRI. This method quantified the concentration hydroperoxides in a sample within the range of 0-50 mg/kg (ppm).

## n-propanol
[1]
  DH Vap: 789 kJ/kg
  Energy Density: 24.7 mJ/L

## CCO [Ethanol]
[1]
  DH Vap: 919 kJ/kg
  Energy Density: 20.2 mJ/L

## O=C1CCCC1 [Cyclopentanone]
[1]
  DH Vap: 504 kJ/kg
  Energy Density: 30.2 mJ/L
  Water Solubility: 61 mg/mL

## CC(C)O [Isopropanol]
[1]
  DH Vap: 744 kJ/kg
  Energy Density: 24.1 mJ/L

## CC(C)=CCO [Prenol, 3-methyl-2-buten-1-ol]
[1]
  DH Vap: 512 kJ/kg
  Water Solubility: 41 mg/mL
[2]
  hydroperoxides (ASTM D3703): non-detect

## CC(C)CO [Isobutanol]
[1]
  DH Vap: 685 kJ/kg
  Energy Density: 26.6 mJ/L
